This note sets out measurements from patent publication US20230167181A1, “PHARMACEUTICAL COMPOSITIONS AND METHODS OF MANUFACTURE USING THERMALLY CONDUCTIVE EXCIPIENTS” (BOARD OF REGENTS, THE UNIVERSITY OF TEXAS SYSTEM, priority 2020, published 2023).

SMILES strings stand for the structures.

The data set can be described thus: Hot stage polarized light microscopy (HSPLM). Format: physicochemical. Conditions: heat only, 130° C. or 160° C., FIG. 3. As for the experimental part:
Hot stage polarized light microscopy (HSPLM) and polarized light microscopy (PLM) were used to determine amorphous nature and visual interactions between excipients when melting. Samples were prepared by lightly spreading physical mixtures of the two compositions onto a glass slide. An Olympus BX60 microscope (Olympus Corp., Center Valley, Pa.) with Insight QE camera (Diagnostic Instruments, Inc., Sterling Heights, Mich.) was used for visual observation. […] Images were captured using Spot Advance Software (Diagnostic Instruments, Inc.).

In the case of `CS(=O)(=O)c1cc(C2(NC(=O)c3cncc4c3cnn4-c3ccc(F)cc3)CC2)ccn1` [BI-667], the “dissolving of BI-667 in HPMCAS-HMP when no mixing was applied” value is reported as “not dissolve”.
